# Source: patent US10562898B2, “Substituted benzenesulfonamides as inhibitors of alpha-4 beta-7 integrin activity” (EA PHARMA CO., LTD., priority 2016, dated 2020)
# Target: T1, α4β1 integrin (Homo sapiens, UniProt P05556+P13612)
# T1 construct: a cell line Jurkat, which is known to express α4β1 integrin; endogenous in cells; host or cells: Jurkat (human T cell line)
# Test: VCAM-1/α4β1 integrin binding inhibitory activity evaluation test (Jurkat cells binding to VCAM-1/Fc)
# Type: cell-based
# Conditions: recombinant human VCAM-1/Fc
# Protocol: (1) VCAM-1/α4β1 Integrin Binding Inhibitory Activity Evaluation Test
# Each test substance was measured in terms of an ability to inhibit the VCAM-1 binding of a human T cell line, namely, a cell line Jurkat, which is known to express α4β1 integrin.
# A solution of recombinant human VCAM-1/Fc (R&D Systems, Inc.) (1 μg/mL) diluted with a buffer A (carbonate buffer, pH 9.6) was placed in an amount of 50 μL/well in a 96-well microtiter plate, followed by incubation at 4° C. overnight. After the plate was washed with PBS once, 150 μL/well of Block Ace (Snow Brand Milk Products Co., Ltd.) was added, followed by incubation at room temperature for 2 hours. After removal, the plate was washed with PBS once.
# Then, 100 μL of the Jurkat cells (2×10^6 cells/mL) and 100 μL of the test substance at each of various concentrations diluted with a binding buffer (DMEM containing 40 mM HEPES, 0.2% BSA, and 4 mM MnCl2) were added to the plate coated with the VCAM-1/Fc (5×10^5 cells/well), followed by incubation at 30° C. for 15 to 60 minutes. After the cells were bound to the wells, the plate was washed with PBS to remove unbound cells. A buffer C (PBS containing 1.5% Triton X-100) was added in an amount 50 μL/well to the plate to lyse the bound Jurkat cells. After 30 μL of a substrate buffer (Promega, CytoTox 96 Non-Radioactive Cytotoxicity Assay) was added to 30 μL of the cell lysate, a reaction was allowed to proceed at room temperature in the dark for 30 minutes. After 30 μL of a stop solution (Promega, CytoTox 96 Non-Radioactive Cytotoxicity Assay) was added to each, and then an absorbance at 490 nm was measured using a plate reader. The absorbance obtained here represents a detection result of an activity of lactate dehydrogenase (LDH) eluted in the supernatant of each well, that is, the absorbance is proportional to the number of Jurkat cells bound to the VCAM-1 and thus remaining on the plate. The test was performed in duplicate. Provided that the absorbance of a well containing no test substance was 100%, a cell binding rate with the test substance at each of the various concentrations was figured out, and a concentration IC50 which brought about 50% binding inhibition was calculated.
# T1 sequence (P13612 34-1032): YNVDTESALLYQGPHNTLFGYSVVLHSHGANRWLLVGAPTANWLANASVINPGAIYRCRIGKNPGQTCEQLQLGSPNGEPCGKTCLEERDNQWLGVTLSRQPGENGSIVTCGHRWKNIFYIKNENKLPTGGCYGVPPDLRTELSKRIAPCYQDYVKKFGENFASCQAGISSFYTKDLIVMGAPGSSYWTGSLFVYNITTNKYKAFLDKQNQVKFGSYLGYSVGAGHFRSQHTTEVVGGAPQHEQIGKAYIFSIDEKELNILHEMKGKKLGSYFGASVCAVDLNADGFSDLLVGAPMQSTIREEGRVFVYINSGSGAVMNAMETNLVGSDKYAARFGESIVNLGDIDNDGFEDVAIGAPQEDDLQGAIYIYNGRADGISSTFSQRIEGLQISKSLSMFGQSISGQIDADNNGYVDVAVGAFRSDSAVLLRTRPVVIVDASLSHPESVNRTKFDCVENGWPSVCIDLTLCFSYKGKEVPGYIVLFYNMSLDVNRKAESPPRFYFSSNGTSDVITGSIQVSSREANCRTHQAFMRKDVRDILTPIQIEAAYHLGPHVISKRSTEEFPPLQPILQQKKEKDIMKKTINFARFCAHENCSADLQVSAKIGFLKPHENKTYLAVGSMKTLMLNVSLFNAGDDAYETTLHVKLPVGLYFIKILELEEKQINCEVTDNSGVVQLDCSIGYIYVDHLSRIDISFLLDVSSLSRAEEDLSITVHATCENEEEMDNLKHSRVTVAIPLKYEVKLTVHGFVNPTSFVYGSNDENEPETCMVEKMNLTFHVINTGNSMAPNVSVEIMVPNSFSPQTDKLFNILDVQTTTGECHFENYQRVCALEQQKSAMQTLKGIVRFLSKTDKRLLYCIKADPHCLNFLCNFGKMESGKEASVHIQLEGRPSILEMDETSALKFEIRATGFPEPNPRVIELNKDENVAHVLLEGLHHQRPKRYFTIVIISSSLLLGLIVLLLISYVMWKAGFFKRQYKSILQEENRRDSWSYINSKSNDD
# T1 sequence (P05556 21-798): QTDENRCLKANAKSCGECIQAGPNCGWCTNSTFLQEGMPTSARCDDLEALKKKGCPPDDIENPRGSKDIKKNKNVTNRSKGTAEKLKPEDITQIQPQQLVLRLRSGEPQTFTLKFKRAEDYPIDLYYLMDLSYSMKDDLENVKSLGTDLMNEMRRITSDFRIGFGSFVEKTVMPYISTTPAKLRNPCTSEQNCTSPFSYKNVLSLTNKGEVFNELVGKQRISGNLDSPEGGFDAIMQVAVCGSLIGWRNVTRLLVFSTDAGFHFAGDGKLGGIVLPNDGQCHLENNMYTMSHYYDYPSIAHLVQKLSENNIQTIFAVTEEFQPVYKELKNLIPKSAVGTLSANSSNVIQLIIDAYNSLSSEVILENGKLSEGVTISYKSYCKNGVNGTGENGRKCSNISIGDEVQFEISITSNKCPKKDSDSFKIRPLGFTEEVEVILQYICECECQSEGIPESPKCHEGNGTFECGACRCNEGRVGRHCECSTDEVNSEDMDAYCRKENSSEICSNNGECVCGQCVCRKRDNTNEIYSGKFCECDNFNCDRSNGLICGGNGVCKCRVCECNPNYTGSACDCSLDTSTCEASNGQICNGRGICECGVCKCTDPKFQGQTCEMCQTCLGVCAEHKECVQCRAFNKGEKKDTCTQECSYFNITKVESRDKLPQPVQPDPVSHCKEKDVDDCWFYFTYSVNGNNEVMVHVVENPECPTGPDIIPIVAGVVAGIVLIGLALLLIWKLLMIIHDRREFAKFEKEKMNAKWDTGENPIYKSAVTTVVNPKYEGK
row,IC50 [µM],Compound
1,1.1,CC(=O)Nc1ccc(S(=O)(=O)Nc2cc(F)c(C(=O)N[C@@H](Cc3ccc(-n4c(=O)c5ccncc5n(C)c4=O)cc3)C(=O)O)cc2F)cc1 [Compound A2]
2,4.4,Cc1c(C)n(C)c(=O)n(-c2ccc(C[C@H](NC(=O)c3cc(F)c(NS(=O)(=O)c4ccc(NC(=O)C(C)(C)C)cn4)cc3F)C(=O)O)cn2)c1=O [Compound A32]
3,1.2,Cn1c(=O)n(-c2ccc(C[C@H](NC(=O)c3cc(F)c(NS(=O)(=O)c4ccc(NC(=O)C(C)(C)C)c(F)c4)cc3F)C(=O)O)cc2)c(=O)c2ccncc21 [Compound A12]
4,0.55,Cn1c(=O)n(-c2ccc(C[C@H](NC(=O)c3cc(F)c(NS(=O)(=O)c4ccc(NC(=O)C5CCOCC5)cc4)cc3F)C(=O)O)cc2)c(=O)c2ccncc21 [Compound A14]
5,38,Cn1ccc(=O)n(-c2ccc(C[C@H](NC(=O)c3cc(F)c(NS(=O)(=O)c4ccc(NC(=O)C(C)(C)C)cc4)cc3F)C(=O)O)nc2)c1=O [Compound A70]
6,19,Cn1c(C(F)(F)F)cc(=O)n(-c2ccc(C[C@H](NC(=O)c3cc(F)c(NS(=O)(=O)c4ccc(NC(=O)C(C)(C)C)cc4)cc3F)C(=O)O)cn2)c1=O [Compound A66]
7,25,Cc1cn(C)c(=O)n(-c2ccc(C[C@H](NC(=O)c3cc(F)c(NS(=O)(=O)c4cc5cc(NC(=O)C(C)(C)C)ccc5[nH]4)cc3F)C(=O)O)cn2)c1=O [Compound A76]
8,19,Cc1cn(C)c(=O)n(-c2ccc(C[C@H](NC(=O)c3cc(F)c(NS(=O)(=O)c4ccc(NC(=O)C5(C(F)(F)F)CC5)cc4)cc3F)C(=O)O)cn2)c1=O [Compound A56]
9,0.48,CN1CCc2c(n(C)c(=O)n(-c3ccc(C[C@H](NC(=O)c4cc(F)c(NS(=O)(=O)c5ccc(NC(=O)C(C)(C)C)cc5)cc4F)C(=O)O)cc3)c2=O)C1 [Compound A41]
10,0.85,Cc1c(C)n(C)c(=O)n(-c2ccc(C[C@H](NC(=O)c3cc(F)c(NS(=O)(=O)c4ccc(NC(=O)C5(C(F)(F)F)CC5)cc4)cc3F)C(=O)O)cc2)c1=O [Compound A20]
11,1.8,COc1cc2c(=O)n(-c3ccc(C[C@H](NC(=O)c4cc(F)c(NS(=O)(=O)c5ccc(NC(=O)C(C)(C)C)cc5)cc4F)C(=O)O)cc3)c(=O)n(C)c2cn1 [Compound A36]
12,0.37,Cc1c(C)n(C)c(=O)n(-c2ccc(C[C@H](NC(=O)c3cc(F)c(NS(=O)(=O)c4ccc(NC(=O)C(C)(C)C)cn4)cc3F)C(=O)O)cc2)c1=O [Compound A19]
13,11,Cc1c(C)n(C(C)C)c(=O)n(-c2ccc(C[C@H](NC(=O)c3cc(F)c(NS(=O)(=O)c4ccc(NC(=O)C(C)(C)C)cc4)cc3F)C(=O)O)cc2)c1=O [Compound A48]
14,12,Cc1cn(C)c(=O)n(-c2ccc(C[C@H](NC(=O)c3cc(F)c(NS(=O)(=O)c4ccc(NC(=O)C5(C#N)CC5)cc4)cc3F)C(=O)O)cn2)c1=O [Compound A60]
15,> 31.2,Cn1ccc(=O)n(-c2ccc(C[C@H](NC(=O)c3cc(F)c(NS(=O)(=O)c4ccc(NC(=O)C5(C(F)(F)F)CC5)cc4)cc3F)C(=O)O)cn2)c1=O [Compound A55]
16,> 31.2,Cn1ccc(=O)n(-c2ccc(C[C@H](NC(=O)c3cc(F)c(NS(=O)(=O)c4ccc(NC(=O)C(C)(C)C)cc4)cc3F)C(=O)O)cn2)c1=O [Compound A53]
17,7.4,Cc1cn(C)c(=O)n(-c2ccc(C[C@H](NC(=O)c3cc(F)c(NS(=O)(=O)c4ccc5c(NC(=O)C(C)(C)C)c[nH]c5c4)cc3F)C(=O)O)cn2)c1=O [Compound A74]
18,7.1,Cc1cn(C)c(=O)n(-c2ccc(C[C@H](NC(=O)c3cc(F)c(NS(=O)(=O)c4c[nH]c5cc(NC(=O)C(C)(C)C)ccc45)cc3F)C(=O)O)cn2)c1=O [Compound A77]
19,0.95,Cc1c(C)n(C)c(=O)n(-c2ccc(C[C@H](NC(=O)c3cc(F)c(NS(=O)(=O)c4ccc(NC(=O)C5CCOCC5)cc4)cc3F)C(=O)O)cc2)c1=O [Compound A15]
20,3.2,Cc1c(C)n(C)c(=O)n(-c2ccc(C[C@H](NC(=O)c3cc(F)c(NS(=O)(=O)c4cc(NC(=O)C(C)(C)C)cs4)cc3F)C(=O)O)cc2)c1=O [Compound A11]
